From PubChem BioAssay AID248 (DTP/NCI, 2004) come the findings set out here.

The assay relates to L1210 leukemia ip in BDF1 mice, survival T/C. The assay can be described thus: NCI In Vivo Anticancer Drug Screen. Data for tumor model L1210 Leukemia (intraperitoneal) in B6D2F1 (BDF1) mice. The settings on record: endpoint: mean survival time, higher = longer survival. In a few lines: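 Survival endpoint. Drug-treated group vs vehicle group, expressed as T divided by C. Tumor passaged by transplantation.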

[1] abbreviates: dose: 100.0 mg/kg/injection, schedule: Q01DX009 (ip), vehicle: Klucel (hydroxypropylcellulose) (HPC).
Where [2] appears, read: dose: 200.0 mg/kg/injection, schedule: Q01DX009 (ip), vehicle: Klucel (hydroxypropylcellulose) (HPC).
Where [3] appears, read: dose: 400.0 mg/kg/injection, schedule: Q01DX009 (ip), vehicle: Klucel (hydroxypropylcellulose) (HPC).
[4] abbreviates: dose: 50.0 mg/kg/injection, schedule: Q01DX001 (ip), vehicle: carboxymethylcellulose (CMC).
[5] abbreviates: dose: 100.0 mg/kg/injection, schedule: Q01DX001 (ip), vehicle: carboxymethylcellulose (CMC).
Where [6] appears, read: dose: 100.0 mg/kg/injection, schedule: Q04DX002 (ip), vehicle: saline with Tween-80.
The mark [7] stands for this setting: dose: 200.0 mg/kg/injection, schedule: Q01DX001 (ip), vehicle: carboxymethylcellulose (CMC).
Setting [8] is: dose: 200.0 mg/kg/injection, schedule: Q04DX002 (ip), vehicle: saline with Tween-80.
The mark [9] stands for this setting: dose: 400.0 mg/kg/injection, schedule: Q01DX001 (ip), vehicle: carboxymethylcellulose (CMC).
Where [10] appears, read: dose: 400.0 mg/kg/injection, schedule: Q04DX002 (ip), vehicle: saline with Tween-80.
[11] abbreviates: dose: 100.0 mg/kg/injection, schedule: Q04DX003 (ip), vehicle: Klucel (hydroxypropylcellulose) (HPC).
Setting [12] is: dose: 200.0 mg/kg/injection, schedule: Q04DX003 (ip), vehicle: Klucel (hydroxypropylcellulose) (HPC).
[13] abbreviates: dose: 400.0 mg/kg/injection, schedule: Q04DX003 (ip), vehicle: Klucel (hydroxypropylcellulose) (HPC).
Where [14] appears, read: dose: 100.0 mg/kg/injection, schedule: Q04DX003 (ip), vehicle: saline.
[15] abbreviates: dose: 100.0 mg/kg/injection, schedule: Q01DX009 (ip), vehicle: saline.
Where [16] appears, read: dose: 200.0 mg/kg/injection, schedule: Q01DX009 (ip), vehicle: saline.
Setting [17] is: dose: 400.0 mg/kg/injection, schedule: Q01DX009 (ip), vehicle: saline.
Where [18] appears, read: dose: 200.0 mg/kg/injection, schedule: Q04DX003 (ip), vehicle: saline.
The mark [19] stands for this setting: dose: 400.0 mg/kg/injection, schedule: Q04DX003 (ip), vehicle: saline.
Setting [20] is: dose: 100.0 mg/kg/injection, schedule: Q01DX001 (ip), vehicle: Klucel (hydroxypropylcellulose) (HPC).

“And” between values parts separate entries of the source, which are not always exact repeats. Equal values may be shown once. Inconclusive results and toxic doses are left out.

For `COc1cc(OC)c(NC(=O)c2c(Br)c(Br)c(Br)c(Br)c2C(=O)O)cc1Cl`, the T/C is, setting by setting: under setting [1], 107 % of control; under setting [2], 94 % of control; under setting [3], 95 % of control.
On to `O=C(O)CCCc1ccccc1`, for which the T/C by setting is: under setting [4], 94 % of control; under setting [5], 108 % of control; under setting [6], 98 % of control; under setting [7], 96 % of control; under setting [8], 91 % of control; under setting [9], 107 % of control. The T/C under setting [10] was 109 % of control.
For `CCOc1cccc(OCC)c1C`, the T/C was 97 % of control under setting [11], 94 % of control under setting [12] and 101 % of control under setting [13].
Regarding `CCOc1ccccc1/C=N\NC(=O)c1cccc2ccccc12`, the T/C runs as follows: (dose: 100.0 mg/kg/injection, schedule: Q01DX001 (ip), vehicle: saline) 95 % of control; (dose: 200.0 mg/kg/injection, schedule: Q01DX001 (ip), vehicle: saline) 95 % of control; (dose: 400.0 mg/kg/injection, schedule: Q01DX001 (ip), vehicle: saline) 90 % of control.
Regarding `Nc1ccn(C2OC(CO)C(O)C2O)c(=NC(CO)C(=O)O)n1` (configuration not stated), the T/C was 117 % of control (dose: 100.0 mg/kg/injection, schedule: Q01DX005 (ip), vehicle: saline) and 120 % of control (dose: 200.0 mg/kg/injection, schedule: Q01DX005 (ip), vehicle: saline).
On to `CCCNCCCCCCNCCC`, for which the T/C under setting [14] is 98 % of control.
As to `COc1cc(CCN)ccc1O`, the T/C under setting [15] was 87 % of control, the T/C under setting [16] is 90 % of control and the T/C under setting [17] is 95 % of control.
Regarding `CC12C(=O)OC(=O)C1C1C=CC2C1` (configuration not stated), the T/C (dose: 100.0 mg/kg/injection, schedule: Q04DX002 (ip), vehicle: Klucel (hydroxypropylcellulose) (HPC)) was 102 % of control; the T/C (dose: 100.0 mg/kg/injection, schedule: Q04DX003 (ip), vehicle: other) was 98 % of control; the T/C (dose: 200.0 mg/kg/injection, schedule: Q04DX002 (ip), vehicle: Klucel (hydroxypropylcellulose) (HPC)) was 102 % of control; the T/C (dose: 200.0 mg/kg/injection, schedule: Q04DX003 (ip), vehicle: other) was 102 % of control.
Consider `CC(=O)OCC(=O)[C@@]1(O)CC[C@H]2[C@@H]3C[C@H](C)C4=CC(=O)C=C[C@]4(C)[C@@]3(F)[C@@H](O)C[C@@]21C`, for which the T/C runs as follows: under setting [15], 103 % of control; under setting [14], 94 % of control; under setting [16], 92 % of control; under setting [18], 111 % of control; under setting [17], 108 % of control; under setting [19], 103 % of control.
For `OC1CC2CC1C1C3C=CC(C3)C21` (configuration not stated), the T/C is 98 % of control (dose: 6.25 mg/kg/injection, schedule: Q01DX009 (ip), vehicle: saline with Tween-80); 101 % of control (dose: 12.5 mg/kg/injection, schedule: Q01DX009 (ip), vehicle: saline with Tween-80); 101 % of control (dose: 25.0 mg/kg/injection, schedule: Q01DX009 (ip), vehicle: saline with Tween-80).
Take `COC(=O)CCc1nc(N)nc(N)n1`: the T/C is 98 % of control under setting [4], 90 % of control under setting [5], 101 % of control under setting [7] and 90 % of control under setting [9].
`CCOC(=O)CC1OC(=O)c2ccccc21` (configuration not stated): the T/C by setting is: under setting [6], 97 % of control; under setting [8], 104 % of control; under setting [10], 108 % of control.
Regarding `OC1CCCC(c2ccccc2)C1` (configuration not stated), the T/C was 97 % of control under setting [1], 97 % of control under setting [2] and 95 % of control under setting [3].
Regarding `O=C(O)c1cc2ccccc2oc1=O`, the T/C by setting is: (dose: 10.0 mg/kg/injection, schedule: Q01DX009 (ip), vehicle: Klucel (hydroxypropylcellulose) (HPC)) 101 % of control; under setting [20], 95 % of control; (dose: 200.0 mg/kg/injection, schedule: Q01DX001 (ip), vehicle: Klucel (hydroxypropylcellulose) (HPC)) 97 % of control; (dose: 400.0 mg/kg/injection, schedule: Q01DX001 (ip), vehicle: Klucel (hydroxypropylcellulose) (HPC)) 98 % of control.
As to `CC1N=C(c2ccc(NC(=O)c3ccc(C(=O)Nc4ccc(C5=NC(C)C(C)N5)cc4)cc3)cc2)NC1C` (configuration not stated), the T/C (dose: 0.5 mg/kg/injection, schedule: Q01DX015 (ip), vehicle: water) is 104 % of control; the T/C (dose: 0.75 mg/kg/injection, schedule: Q01DX001 (ip), vehicle: water) was 101 % of control; the T/C (dose: 1.0 mg/kg/injection, schedule: Q01DX015 (ip), vehicle: water) was 110 % of control; the T/C (dose: 1.5 mg/kg/injection, schedule: Q01DX001 (ip), vehicle: water) was 98 % of control; the T/C (dose: 2.0 mg/kg/injection, schedule: Q01DX001 (ip), vehicle: water) is 106 % of control; the T/C (dose: 3.0 mg/kg/injection, schedule: Q01DX001 (ip), vehicle: water) is 103 % of control. For the same compound, the T/C is 189 % of control (dose: 3.0 mg/kg/injection, schedule: Q01DX015 (ip), vehicle: water) and 222 % of control (dose: 4.0 mg/kg/injection, schedule: Q01DX015 (ip), vehicle: water).
With `CC(=N/NC(=O)c1ccc[n+](C)c1)/C(C)=N\NC(=O)c1ccc[n+](C)c1`, the T/C is 95 % of control (dose: 25.0 mg/kg/injection, schedule: Q01DX001 (ip), vehicle: saline) and 95 % of control (dose: 50.0 mg/kg/injection, schedule: Q01DX001 (ip), vehicle: saline).
`C=CCNC(=O)CCl`: the T/C (dose: 25.0 mg/kg/injection, schedule: Q01DX009 (ip), vehicle: saline) was 100 % of control; the T/C (dose: 25.0 mg/kg/injection, schedule: Q04DX003 (ip), vehicle: saline) was 97 % of control; the T/C (dose: 50.0 mg/kg/injection, schedule: Q01DX009 (ip), vehicle: saline) is 99 % of control; the T/C (dose: 66.0 mg/kg/injection, schedule: Q04DX003 (ip), vehicle: saline) is 104 % of control; the T/C under setting [15] is 95 % of control; the T/C under setting [14] is 106 % of control and 108 % of control. Moreover, the T/C (dose: 150.0 mg/kg/injection, schedule: Q04DX003 (ip), vehicle: saline) is 100 % of control.
With `Cc1cc2cccc(CN)c2cc1C`, the T/C under setting [20] is 93 % of control.
In the case of `CC(C)(C)C(=O)CSC/C(=N/O)C(C)(C)C`, the T/C by setting is: under setting [11], 112 % of control; under setting [12], 103 % of control; under setting [13], 99 % of control.
With `Cc1ccc(Cl)cc1NC(=O)Nc1cc(C(C)C)ccc1C`, the T/C runs as follows: (dose: 100.0 mg/kg/injection, schedule: Q01DX009 (ip), vehicle: saline with Tween-80) 93 % of control and 100 % of control; under setting [6], 100 % of control and 90 % of control; (dose: 200.0 mg/kg/injection, schedule: Q01DX009 (ip), vehicle: saline with Tween-80) 93 % of control and 91 % of control; under setting [8], 93 % of control and 94 % of control; (dose: 400.0 mg/kg/injection, schedule: Q01DX009 (ip), vehicle: saline with Tween-80) 86 % of control; under setting [10], 96 % of control and 101 % of control.
As for `COC(OC)c1[nH]c(=S)[nH]c(=O)c1Cc1ccc(-c2ccccc2)cc1`, the T/C reads like this: (dose: 100.0 mg/kg/injection, schedule: Q04DX003 (ip), vehicle: saline with Tween-80) 101 % of control; (dose: 200.0 mg/kg/injection, schedule: Q04DX003 (ip), vehicle: saline with Tween-80) 100 % of control; (dose: 400.0 mg/kg/injection, schedule: Q04DX003 (ip), vehicle: saline with Tween-80) 95 % of control.
For `Cc1cc(C)[nH]n1`, the T/C reads like this: under setting [15], 103 % of control; under setting [16], 104 % of control; under setting [17], 100 % of control.
For `Br/C=C/C1=CCCCC1`, the T/C runs as follows: (dose: 100.0 mg/kg/injection, schedule: Q01DX009 (ip), vehicle: acetone) 98 % of control; under setting [14], 97 % of control; (dose: 200.0 mg/kg/injection, schedule: Q01DX009 (ip), vehicle: acetone) 90 % of control; under setting [18], 92 % of control; under setting [19], 114 % of control.
